Experiment: Inhibition of NRAS G12D mutant (unknown origin) expressed in human THP-1 cells assessed as reduction in ERK phosphorylation incubated for 2 hrs by AlphaLISA SureFire Ultra assay
Assay type: cell-based
Conditions: THP-1, 2 h

IC50: 803 pM
SMILES: C[C@@H]1OC2=NC(c3cc(N)cc(F)c3OC(F)(F)F)=C(F)C3C(Cl)=C(CCN(C)C)N=C(C23)N2C[C@H]3CC[C@H](N3)[C@@H]12 (stereo partly specified)
